Measured values as given in ChEMBL document CHEMBL5030556, “Selection and Identification of Novel Antibacterial Agents against Planktonic Growth and Biofilm Formation of Enterococcus faecalis” (J Med Chem, 2021).
Values after ≈ are worked out from the molar mass of the structure shown. Active and inactive are the calls of the source. The calls are words filed in the database; no cut-off is given here.

Legend:
Enterococcus faecalis [1] = assay: Antibiofilm activity against Enterococcus faecalis assessed as fold reduction in fsrB gene expression at 25 uM incubated for 6 hrs by qRT-PCR analysis; assay type: functional
[2] = Hemolytic activity against human erythrocytes at 200 uM incubated for 1 hr at 570 nm by spectrophotometry; assay type: ADME, tissue-based, Erythrocyte; conditions: read-out: Activity
Enterococcus faecalis [3] = assay: Antibacterial activity against Enterococcus faecalis OG1RF assessed as reduction in visible bacterial growth incubated for 16 to 20 hrs by microdilution broth assay; assay type: functional; conditions: time 16-20 hrs
Enterococcus faecalis [4] = assay: Antibiofilm activity against Enterococcus faecalis assessed as fold reduction in epbOX gene expression at 25 uM incubated for 6 hrs by qRT-PCR analysis; assay type: functional
Enterococcus faecalis [5] = assay: Antibiofilm activity against Enterococcus faecalis assessed as inhibition of biofilm at 1/2 times of MIC incubated for 24 hrs; assay type: functional; parameters: scale not given: the % may be the effect or the level left
Enterococcus faecalis [6] = assay: Bactericidal activity against Enterococcus faecalis OG1RF assessed as reductions in colony forming unit in presence of linezolid within 3 hrs by time-killing assay; assay type: functional, organism-based
Enterococcus faecalis [7] = assay: Antibiofilm activity against Enterococcus faecalis assessed as fold reduction in yycG gene expression at 25 uM incubated for 6 hrs by qRT-PCR analysis; assay type: functional
Enterococcus faecalis [8] = assay: Bactericidal activity against Enterococcus faecalis OG1RF assessed as reductions in colony forming unit in presence of ampicillin within 3 hrs by time-killing assay; assay type: functional, organism-based
Enterococcus faecalis [9] = assay: Bactericidal activity against Enterococcus faecalis OG1RF assessed as reductions in colony forming unit in presence of vancomycin within 3 hrs by time-killing assay; assay type: functional, organism-based
[10] = Inhibition of Enterococcus faecalis OG1RF YycG autophosphorylation by Kinase-Glo luminescent kinase assay
Enterococcus faecalis [11] = assay: Antibiofilm activity against Enterococcus faecalis assessed as fold reduction in gelE gene expression at 25 uM incubated for 6 hrs by qRT-PCR analysis; assay type: functional
Enterococcus faecalis [12] = assay: Antibiofilm activity against Enterococcus faecalis FB-1 assessed as inhibition of biofilm maturation measured after 24 hr; assay type: functional, organism-based
Enterococcus faecalis [13] = assay: Bactericidal activity against Enterococcus faecalis OG1RF assessed as reductions in colony forming unit in presence of vancomycin after 24 hrs by time-killing assay; assay type: functional, organism-based
Enterococcus faecalis [14] = assay: Binding affinity to Enterococcus faecalis FB-1 YycG assessed as slow association and rapid dissociation measured by Octet RED96 response assay
Staphylococcus aureus [15] = assay: Antibacterial activity against Staphylococcus aureus ATCC 29213 assessed as reduction in visible bacterial growth incubated for 16 to 20 hrs by microdilution broth assay; assay type: functional; conditions: time 16-20 hrs
Enterococcus faecalis [16] = assay: Bactericidal activity against Enterococcus faecalis OG1RF assessed as reductions in colony forming unit in presence of ampicillin after 24 hrs by time-killing assay; assay type: functional, organism-based
[17] = test system: Staphylococcus epidermidis; assay: Antibacterial activity against Staphylococcus epidermidis ATCC 35984 assessed as reduction in visible bacterial growth incubated for 16 to 20 hrs by microdilution broth assay; assay type: functional; conditions: time 16-20 hrs
Enterococcus faecalis [18] = assay: Antibacterial activity against Enterococcus faecalis FB-1 assessed as reduction in visible bacterial growth incubated for 16 to 20 hrs by microdilution broth assay; assay type: functional; conditions: time 16-20 hrs
Staphylococcus aureus [19] = assay: Antibacterial activity against Staphylococcus aureus ATCC 35556 assessed as reduction in visible bacterial growth incubated for 16 to 20 hrs by microdilution broth assay; assay type: functional; conditions: time 16-20 hrs
Enterococcus faecalis [20] = assay: Bactericidal activity against Enterococcus faecalis OG1RF assessed as reduction in bacterial colonies incubated for 16 to 20 hrs by microdilution broth analysis; assay type: functional; conditions: time 16-20 hrs, read-out: MBC99.9
Enterococcus faecalis [21] = assay: Antibacterial activity against clinical strain vancomycin-resistant Enterococcus faecalis assessed as inhibition of bacterial growth; assay type: functional
Enterococcus faecalis [22] = assay: Antimicrobial activity against Enterococcus faecalis OG1RF assessed as reduction in visible bacterial growth incubated for 16 to 20 hrs by microdilution broth assay; assay type: functional; conditions: time 16-20 hrs
Escherichia coli = assay: Antibacterial activity against Escherichia coli […] assessed as reduction in visible bacterial growth incubated for 16 to 20 hrs by microdilution broth assay; assay type: functional; conditions: time 16-20 hrs
Enterococcus faecalis [23] = assay: Bactericidal activity against Enterococcus faecalis OG1RF assessed as reductions in colony forming unit in presence of linezolid after 24 hrs by time-killing assay; assay type: functional, organism-based
Streptococcus agalactiae = assay: Antibacterial activity against Streptococcus agalactiae NSGC64 assessed as reduction in visible bacterial growth incubated for 16 to 20 hrs by microdilution broth assay; assay type: functional; conditions: time 16-20 hrs
Enterococcus faecium = assay: Antibacterial activity against Enterococcus faecium EF16M64 assessed as reduction in visible bacterial growth incubated for 16 to 20 hrs by microdilution broth assay; assay type: functional; conditions: time 16-20 hrs
Enterococcus faecalis [24] = assay: Antibacterial activity against clinical strain linozelid-resistant Enterococcus faecalis assessed as inhibition of bacterial growth; assay type: functional
Enterococcus faecalis [25] = assay: Antibiofilm activity against Enterococcus faecalis assessed as fold reduction in sprE gene expression at 25 uM incubated for 6 hrs by qRT-PCR analysis; assay type: functional
Enterococcus faecalis [26] = assay: Antibacterial activity against ATc induced Enterococcus faecalis OG1RF-asryycG silencing strain assessed as fold reduction in MIC relative to wild type; assay type: functional
Enterococcus faecalis [27] = assay: Antibiofilm activity against Enterococcus faecalis FB-1 assessed as eradication of mature biofilm by semiquantitative microtiter assay; assay type: functional, organism-based
Enterococcus faecalis [28] = assay: Antibacterial activity against clinical strain Enterococcus faecalis assessed as inhibition of bacterial growth; assay type: functional
Enterococcus faecalis [29] = assay: Inhibition of biofilm formation of Enterococcus faecalis FB-1 assessed as inhibitory rate of formation at 100 uM for 24 hrs measured at 570 nm by crystal violet staining based spectrophotometry; assay type: functional
Enterococcus faecalis [30] = assay: Antibiofilm activity against Enterococcus faecalis assessed as fold reduction in yycF gene expression at 25 uM incubated for 6 hrs by qRT-PCR analysis; assay type: functional
[31] = Cytotoxicity against african green monkey Vero cells assessed as inhibition of cell growth by MTT assay; assay type: cell-based; conditions: chlorocebus sabaeus
[32] = Hemolytic activity against human erythrocytes at 50 uM incubated for 1 hr at 570 nm by spectrophotometry; assay type: ADME, tissue-based, Erythrocyte; conditions: read-out: Activity
[33] = test system: Staphylococcus epidermidis; assay: Antibacterial activity against Staphylococcus epidermidis ATCC 12228 assessed as reduction in visible bacterial growth incubated for 16 to 20 hrs by microdilution broth assay; assay type: functional; conditions: time 16-20 hrs
Enterococcus faecalis [34] = assay: Effect on initial adhesion capacity of Enterococcus faecalis assessed as attached cells at 25 uM for 6 hrs by crystal violet staining based microscopic assay (reference value: 0.412); assay type: functional
Enterococcus faecalis [35] = assay: Antibiofilm activity against Enterococcus faecalis assessed as fold reduction in […] gene expression at 25 uM incubated for 6 hrs by qRT-PCR analysis; assay type: functional
Enterococcus faecalis [36] = assay: Antibiofilm activity against Enterococcus faecalis assessed as reduction in amount of viable biofilm-embedded bacterial cells at 50 uM measured by YTO 9/PI staining followed by confocal laser scanning microscopy; assay type: functional
Enterococcus faecalis [37] = assay: Antibiofilm activity against Enterococcus faecalis FB-1 assessed as inhibition of biofilm infection at 25 uM by fluid shear system; assay type: functional, organism-based
Enterococcus faecalis [38] = assay: Antibacterial activity against Enterococcus faecalis ATCC 29212 assessed as reduction in visible bacterial growth incubated for 16 to 20 hrs by microdilution broth assay; assay type: functional; conditions: time 16-20 hrs
Enterococcus faecalis [39] = assay: Bacteriostatic activity against planktonic cells of Enterococcus faecalis OG1RF measured by microdilution broth assay; assay type: functional, organism-based
Enterococcus faecalis [40] = assay: Antibiofilm activity against Enterococcus faecalis FB-1 assessed as inhibition of biofilm maturation at 1.56 uM measured after 24 hr; assay type: functional, organism-based

CCOC(=O)c1c(CN2CCN(C)CC2)n(-c2ccccc2)c2ccc(OS(=O)(=O)c3ccc(C)cc3)cc12
fold change (FC) (Enterococcus faecalis [1]): 2 | hemolysis at 1 h, 200 µM [2]: 28.2% | MIC (Enterococcus faecalis [3]): 25 µM (≈ 13.7 µg/mL) | fold change (FC) (Enterococcus faecalis [4]): 2 | Activity (Enterococcus faecalis [5]): 74.8% | Activity (Enterococcus faecalis [6]): Active | fold change (FC) (Enterococcus faecalis [7]): 20 | Activity (Enterococcus faecalis [8]): Active | Activity (Enterococcus faecalis [9]): Active | IC50 [10]: 42.9 µM | fold change (FC) (Enterococcus faecalis [11]): 2 | Activity (Enterococcus faecalis [12]): Dose-Dependent Effect | Activity (Enterococcus faecalis [13]): Active | Activity (Enterococcus faecalis [14]): Active | MIC (Staphylococcus aureus [15]): 12.5 µM (≈ 6.85 µg/mL) | Activity (Enterococcus faecalis [16]): Active | MIC [17]: 12.5 µM (≈ 6.85 µg/mL) | MIC (Enterococcus faecalis [18]): 50 µM (≈ 27.4 µg/mL) | MIC (Staphylococcus aureus [19]): 12.5 µM (≈ 6.85 µg/mL) | MBC (Enterococcus faecalis [20]): 100 µM (≈ 54.8 µg/mL) | MIC50 (Enterococcus faecalis [21]): 50 µM (≈ 27.4 µg/mL) | MIC (Enterococcus faecalis [22]): 25 µM (≈ 13.7 µg/mL) | MIC (Escherichia coli): > 200 µM | Activity (Enterococcus faecalis [23]): Active | MIC (Streptococcus agalactiae): 12.5 µM (≈ 6.85 µg/mL) | MIC (Enterococcus faecium): 25 µM (≈ 13.7 µg/mL) | MIC90 (Enterococcus faecalis [24]): 100 µM (≈ 54.8 µg/mL) | fold change (FC) (Enterococcus faecalis [25]): 2 | fold change (FC) (Enterococcus faecalis [26]): 4 | Activity (Enterococcus faecalis [27]): inactive | MIC (Enterococcus faecalis [28]): 25 µM (≈ 13.7 µg/mL) | inhibition at 100 µM (Enterococcus faecalis [29]): 96.2% | fold change (FC) (Enterococcus faecalis [30]): 3 | CC50 [31]: > 200 µM | hemolysis at 1 h, 50 µM [32]: 24.1% | MIC [33]: 12.5 µM (≈ 6.85 µg/mL) | OD (Enterococcus faecalis [34]): 0.186 | fold change (FC) (Enterococcus faecalis [35]): 2 | Activity (Enterococcus faecalis [36]): 18.29% | Activity (Enterococcus faecalis [37]): Active | MIC (Enterococcus faecalis [38]): 25 µM (≈ 13.7 µg/mL)

CC1(C)S[C@@H]2[C@H](NC(=O)[C@H](N)c3ccccc3)C(=O)N2[C@H]1C(=O)O [AMPICILLIN]
Activity (Enterococcus faecalis [36]): 24.46%

O=C(C1=C(O)C(=O)N(c2nnc(SCc3ccc(F)cc3)s2)C1c1cccc(O)c1)c1cc2ccccc2o1 (centres undefined)
hemolysis at 1 h, 200 µM [2]: 3.83% | Activity (Enterococcus faecalis [39]): inactive | IC50 [10]: > 200 µM | Activity (Enterococcus faecalis [12]): Dose-Dependent Effect | Activity (Enterococcus faecalis [40]): Active | MBC (Enterococcus faecalis [20]): > 200 µM | MIC (Enterococcus faecalis [22]): > 200 µM | Activity (Enterococcus faecalis [27]): inactive | inhibition at 100 µM (Enterococcus faecalis [29]): 75.5% | CC50 [31]: > 200 µM | hemolysis at 1 h, 50 µM [32]: 1.94%

Cc1ccc(CSc2nnc(N3C(=O)C(O)=C(C(=O)c4cc5ccccc5o4)C3c3cccc(O)c3)s2)cc1 (centres undefined)
hemolysis at 1 h, 200 µM [2]: 6.32% | Activity (Enterococcus faecalis [39]): inactive | IC50 [10]: 1.5 µM | Activity (Enterococcus faecalis [12]): Dose-Dependent Effect | Activity (Enterococcus faecalis [40]): Active | MBC (Enterococcus faecalis [20]): > 200 µM | MIC (Enterococcus faecalis [22]): > 200 µM | inhibition at 100 µM (Enterococcus faecalis [29]): 77.7% | CC50 [31]: > 200 µM | hemolysis at 1 h, 50 µM [32]: 4.7% | Activity (Enterococcus faecalis [36]): 46.93%
